The test system of data set [1] is indolent B cell malignancies. The settings on record: Phase I, subset of patients with indolent B cell malignancies; cited from earlier work.
Data set [2] concerns mouse model of rheumatoid arthritis. The settings on record: in vivo; cited from earlier work.
For data set [3], the system named is model of systemic lupus erythematosis. The settings on record: in vivo; cited from earlier work.
The target in data set [4] is PI3K (p110α/p85α) (h) (Homo sapiens (Human), UniProt P42336). As to the kind of experiment: PI3K (p110α/p85α) (h) non-radioactive HTRF kinase assay. The data set is classed as biochemical. The protocol: (§1) PI3K (p110α/p85α) (h) is incubated in assay buffer containing 10 μM phosphatidylinositol 4,5-bisphosphate and MgATP (concentration as required). The reaction is initiated by the addition of the ATP solution. After incubation for 30 minutes at room temperature, the reaction is stopped by the addition of stop solution containing EDTA and biotinylated phosphatidylinositol-3,4,5-trisphosphate. Finally, detection buffer is added, which contains europium-labelled anti-GST monoclonal antibody, GST-tagged GRP1 PH domain and streptavidin allophycocyanin. The plate is then read in timeresolved fluorescence mode and the homogenous time-resolved fluorescence (HTRF) signal is determined according to the formula HTRF=10000×(Em665 nm/Em620 nm).
Chain of PI3K (p110α/p85α) (h) (P42336 whole entry, the tested form may be a part): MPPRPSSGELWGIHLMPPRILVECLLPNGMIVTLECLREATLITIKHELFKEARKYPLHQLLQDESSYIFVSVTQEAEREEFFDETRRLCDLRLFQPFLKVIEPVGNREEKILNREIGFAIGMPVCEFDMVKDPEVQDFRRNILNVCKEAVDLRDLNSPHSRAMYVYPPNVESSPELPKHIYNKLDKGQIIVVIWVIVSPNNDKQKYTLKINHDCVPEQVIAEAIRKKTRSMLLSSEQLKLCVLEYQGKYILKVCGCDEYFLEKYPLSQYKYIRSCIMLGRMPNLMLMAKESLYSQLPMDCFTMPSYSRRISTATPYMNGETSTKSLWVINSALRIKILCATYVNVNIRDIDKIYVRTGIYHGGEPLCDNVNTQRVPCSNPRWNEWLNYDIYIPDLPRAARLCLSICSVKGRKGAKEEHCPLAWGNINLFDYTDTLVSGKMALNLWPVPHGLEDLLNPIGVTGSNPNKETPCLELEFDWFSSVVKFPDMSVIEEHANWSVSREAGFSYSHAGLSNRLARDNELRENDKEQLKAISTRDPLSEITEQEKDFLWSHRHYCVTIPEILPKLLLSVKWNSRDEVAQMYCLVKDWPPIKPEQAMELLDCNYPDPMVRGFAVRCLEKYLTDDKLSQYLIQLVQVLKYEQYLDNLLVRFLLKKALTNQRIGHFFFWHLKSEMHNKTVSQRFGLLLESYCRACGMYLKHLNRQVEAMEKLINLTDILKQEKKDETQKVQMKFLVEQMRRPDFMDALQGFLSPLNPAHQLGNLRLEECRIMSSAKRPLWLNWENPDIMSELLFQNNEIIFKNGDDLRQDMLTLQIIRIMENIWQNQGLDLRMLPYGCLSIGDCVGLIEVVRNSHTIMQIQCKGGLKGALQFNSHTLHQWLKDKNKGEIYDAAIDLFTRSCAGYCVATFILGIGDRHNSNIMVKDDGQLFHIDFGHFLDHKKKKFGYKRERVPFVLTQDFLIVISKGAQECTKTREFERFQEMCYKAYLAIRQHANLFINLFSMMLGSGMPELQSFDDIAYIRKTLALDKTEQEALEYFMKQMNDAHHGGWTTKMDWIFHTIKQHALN
Chain of PI3K (p110α/p85α) (h) (P27986 whole entry partner, the tested form may be a part): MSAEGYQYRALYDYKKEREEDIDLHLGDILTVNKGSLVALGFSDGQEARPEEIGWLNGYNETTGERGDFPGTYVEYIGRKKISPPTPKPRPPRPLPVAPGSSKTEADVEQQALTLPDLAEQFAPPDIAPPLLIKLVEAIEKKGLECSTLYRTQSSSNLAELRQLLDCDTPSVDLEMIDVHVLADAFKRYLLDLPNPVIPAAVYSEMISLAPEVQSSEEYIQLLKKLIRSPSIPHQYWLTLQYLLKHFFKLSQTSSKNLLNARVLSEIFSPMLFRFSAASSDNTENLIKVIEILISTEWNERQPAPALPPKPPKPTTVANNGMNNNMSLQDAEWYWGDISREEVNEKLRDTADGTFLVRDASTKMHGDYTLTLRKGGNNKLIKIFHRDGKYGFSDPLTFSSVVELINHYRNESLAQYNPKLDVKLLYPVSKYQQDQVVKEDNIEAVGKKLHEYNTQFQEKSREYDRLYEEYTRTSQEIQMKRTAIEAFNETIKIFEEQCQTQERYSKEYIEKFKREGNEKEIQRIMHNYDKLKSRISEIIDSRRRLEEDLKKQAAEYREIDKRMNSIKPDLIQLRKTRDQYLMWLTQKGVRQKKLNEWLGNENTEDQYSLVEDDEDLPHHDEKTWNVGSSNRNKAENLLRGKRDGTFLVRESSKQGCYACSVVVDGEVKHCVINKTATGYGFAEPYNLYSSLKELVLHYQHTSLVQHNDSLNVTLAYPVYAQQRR
(§2) The kinase assays described herein were performed at Millipore UK Ltd, Dundee Technology Park, Dundee DD2 1SW, UK.
For orientation: TR-FRET usually uses a lanthanide donor and a delayed reading to cut background.

Data set [5] has as its target PI3K (p110β/p85α) (h) (Homo sapiens (Human), UniProt P42338). As to the kind of experiment: PI3K (p110β/p85α) (h) non-radioactive HTRF kinase assay. The data set is classed as biochemical. The protocol:
as §1, with “(p110β/p85α)” for “(p110α/p85α)”, “phosphatidylinositol-4,5-bisphosphate” for “phosphatidylinositol 4,5-bisphosphate”, “MgATP mix.” for “ATP solution.”, “streptavidin-allophycocyanin.” for “streptavidin allophycocyanin.”
as §2

Data set [6] addresses PI3K (p110δ/p85α) (h) (Homo sapiens (Human), UniProt O00329). Briefly: PI3K (p110δ/p85α) (h) non-radioactive HTRF kinase assay. The class given is biochemical. The procedure:
as §1, with “(p110δ/p85α)” for “(p110α/p85α)”, “phosphatidylinositol-4, 5-bisphosphate” for “phosphatidylinositol 4,5-bisphosphate”, “MgATP mix.” for “ATP solution.”, “streptavidin-allophycocyanin.” for “streptavidin allophycocyanin.”
as §2

Data set [7] deals with PI3K (p120γ) (h) (Homo sapiens (Human), UniProt P48736). Briefly: PI3K (p120γ) (h) non-radioactive HTRF kinase assay. The class given is biochemical. The protocol: as §1, with “(p120γ)” for “(p110α/p85α)”, “phosphatidylinositol-4, 5-bisphosphate” for “phosphatidylinositol 4,5-bisphosphate”, “MgATP mix.” for “ATP solution.”, “streptavidin-allophycocyanin.” for “streptavidin allophycocyanin.”
as §2

The subject of data set [8] is PI3K-α (SKOV3). As to the kind of experiment: p-AKT HTRF assay, PI3K-α in SKOV3 cells. The class given is cell-based. Conditions: Homo sapiens, SK-OV-3. The protocol: (§3) Cells were incubated at 37° C. in a 5% CO2 atmosphere overnight. […] Medium was then aspirated and 50 μL/well of lysis buffer was added. Plates were shaked for 45 minutes at room temperature and then 16 ul/well of lysate was transferred to 384-well plate. 4 ul/well of premixed antibody was added to the wells. The plate was centrifuged at 1000 rpm at RT for 1 minute and then incubated for 4 hours at 22° C., and Phospho-AKT (ser473) Kit was used for detection.

For data set [9], the system named is PI3K-β (786-O). As to the kind of experiment: p-AKT HTRF assay, PI3K-β in 786-O cells. The data set is classed as cell-based. Conditions: Homo sapiens, 786-0. The protocol: as §3
Data set [10] concerns PI3K-δ (RAJI). As to the kind of experiment: p-AKT HTRF assay, PI3K-δ in RAJI cells stimulated with anti-IgM. Conditions: anti-human IgM stimulation. The class given is cell-based. The procedure:
as §3

In data set [11] the test system is PI3K-γ (RAW264.7). As to the kind of experiment: p-AKT HTRF assay, PI3K-γ in RAW 264.7 cells stimulated with C5a. The class given is cell-based, murine. The settings on record: Mus musculus; RAW264.7 cells, C5a stimulation. The procedure: as §3
Data set [12] has as its target hERG channels (Homo sapiens (Human), UniProt Q12809). Briefly: hERG assay, automated QPatch procedure. The class given is cell-based. The source says: Only stable cells with recording parameters above threshold were allowed to enter the drug application procedure.
On the technique in general: Block of hERG is tested as a sign of cardiac risk.

A value given as a limit tells only on which side of the number the result lay.

Chain of hERG channels (Q12809 whole entry): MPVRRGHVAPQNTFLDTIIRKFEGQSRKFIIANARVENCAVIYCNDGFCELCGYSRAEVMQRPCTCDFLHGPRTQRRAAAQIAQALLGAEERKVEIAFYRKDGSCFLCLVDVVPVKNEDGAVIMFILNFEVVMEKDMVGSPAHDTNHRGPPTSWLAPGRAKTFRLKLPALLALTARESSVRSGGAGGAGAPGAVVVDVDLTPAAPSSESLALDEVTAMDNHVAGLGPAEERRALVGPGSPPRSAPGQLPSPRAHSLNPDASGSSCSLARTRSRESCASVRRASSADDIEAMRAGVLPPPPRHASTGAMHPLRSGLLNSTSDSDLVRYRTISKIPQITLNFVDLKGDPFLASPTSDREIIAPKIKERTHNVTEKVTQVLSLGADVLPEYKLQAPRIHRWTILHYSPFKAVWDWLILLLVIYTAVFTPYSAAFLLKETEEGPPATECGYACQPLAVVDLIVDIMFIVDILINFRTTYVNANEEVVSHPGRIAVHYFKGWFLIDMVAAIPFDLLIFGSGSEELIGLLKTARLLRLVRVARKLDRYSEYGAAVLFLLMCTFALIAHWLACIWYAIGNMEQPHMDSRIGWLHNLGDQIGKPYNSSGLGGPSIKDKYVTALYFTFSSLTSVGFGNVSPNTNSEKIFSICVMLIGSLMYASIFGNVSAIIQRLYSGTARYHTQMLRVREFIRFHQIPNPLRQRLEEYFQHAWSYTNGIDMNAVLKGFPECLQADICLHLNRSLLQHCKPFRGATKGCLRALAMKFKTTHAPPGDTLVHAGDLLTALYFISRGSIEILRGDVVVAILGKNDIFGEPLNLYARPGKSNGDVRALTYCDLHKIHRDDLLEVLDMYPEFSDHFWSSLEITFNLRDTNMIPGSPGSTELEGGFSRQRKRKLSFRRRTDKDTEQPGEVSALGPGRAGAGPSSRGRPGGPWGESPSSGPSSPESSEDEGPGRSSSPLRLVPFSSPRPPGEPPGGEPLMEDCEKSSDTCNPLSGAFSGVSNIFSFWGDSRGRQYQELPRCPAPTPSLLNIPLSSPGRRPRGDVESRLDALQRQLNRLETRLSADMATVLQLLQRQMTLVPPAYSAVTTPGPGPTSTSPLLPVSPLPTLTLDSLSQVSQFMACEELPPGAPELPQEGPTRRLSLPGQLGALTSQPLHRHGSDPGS
Chain of PI3K (p110β/p85α) (h) (P42338 whole entry): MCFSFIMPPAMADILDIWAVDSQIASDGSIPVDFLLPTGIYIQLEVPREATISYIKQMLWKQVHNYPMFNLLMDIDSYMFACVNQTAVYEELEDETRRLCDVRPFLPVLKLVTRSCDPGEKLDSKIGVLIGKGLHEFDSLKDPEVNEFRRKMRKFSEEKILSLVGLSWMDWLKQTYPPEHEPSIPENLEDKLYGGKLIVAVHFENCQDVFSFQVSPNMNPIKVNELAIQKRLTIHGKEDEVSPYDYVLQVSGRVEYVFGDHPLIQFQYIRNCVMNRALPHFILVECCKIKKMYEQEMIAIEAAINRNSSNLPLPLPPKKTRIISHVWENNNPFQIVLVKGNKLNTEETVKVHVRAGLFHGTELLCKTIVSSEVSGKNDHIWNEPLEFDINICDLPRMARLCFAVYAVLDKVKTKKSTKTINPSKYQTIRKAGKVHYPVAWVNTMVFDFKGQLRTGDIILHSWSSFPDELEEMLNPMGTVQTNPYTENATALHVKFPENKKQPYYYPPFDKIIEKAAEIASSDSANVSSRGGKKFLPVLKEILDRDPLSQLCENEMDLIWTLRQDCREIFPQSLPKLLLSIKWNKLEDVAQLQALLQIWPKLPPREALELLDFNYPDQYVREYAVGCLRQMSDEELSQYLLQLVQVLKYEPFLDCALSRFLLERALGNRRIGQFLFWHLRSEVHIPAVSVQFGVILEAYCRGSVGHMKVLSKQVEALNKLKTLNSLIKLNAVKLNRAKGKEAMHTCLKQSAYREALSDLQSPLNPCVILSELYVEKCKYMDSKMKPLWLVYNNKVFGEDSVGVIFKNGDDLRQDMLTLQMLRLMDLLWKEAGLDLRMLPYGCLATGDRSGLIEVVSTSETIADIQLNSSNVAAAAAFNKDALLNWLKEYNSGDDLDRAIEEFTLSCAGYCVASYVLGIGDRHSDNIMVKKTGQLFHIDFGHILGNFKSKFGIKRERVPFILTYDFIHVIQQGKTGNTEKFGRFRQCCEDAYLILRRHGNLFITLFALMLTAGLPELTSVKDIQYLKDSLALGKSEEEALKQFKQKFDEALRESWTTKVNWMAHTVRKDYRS
Chain of PI3K (p110β/p85α) (h) (P27986 whole entry partner): as the sequence (P27986 whole entry partner, the tested form may be a part) above

Consider `CC[C@H](Nc1ncnc2[nH]cnc12)c1nc2cccc(F)c2c(=O)n1-c1ccccc1` [CAL-101, idelalisib], for which, in data set [1], the clinical response entry is “dramatic and durable responses”.

Regarding `O=C1NC(=O)/C(=C\c2ccc3nccnc3c2)S1` [AS 605240], in [2], the “efficacy in a mouse model of rheumatoid arthritis” value is recorded as “efficacious”. Further, in [3], the “effect on onset of disease in a model of systemic lupus erythematosis” value is reported as “delay onset of disease”.

Broadly, the IC50 is the point on the concentration scale where inhibition reaches its midpoint. In the case of `CC#Cc1cccc2cc([C@H](C)Nc3ncnc(N)c3-c3nc(C)no3)n(-c3ccccc3)c(=O)c12` [Example 16, (S)-3-(1-((6-amino-5-(3-methyl-1,2,4-oxadiazol-5-yl)pyrimidin-4-yl)amino)ethyl)-2-phenyl-8-(prop-1-yn-1-yl)isoquinolin-1(2H)-one], the IC50 amounted to 121 nM in data set [4]; 61 nM in [5]; 10 nM in data set [6]; 26 nM in data set [7]; 305 nM in [8]; 34.4 nM in data set [9]. Moreover, the IC50 in data set [10] is 0.52 nM; in data set [11], 22.6 nM; in data set [12] it was > 30000 nM.

The values are drawn from patent US10751339B2, “Substituted aminopyrimidine compounds and methods of use” (SUNSHINE LAKE PHARMA CO., LTD., priority 2018, dated 2020).
